In general, Kd refers to a measure of binding affinity in units of concentration.

For test [1], the target named is T1, Cysteine--tRNA ligase, cytoplasmic (Homo sapiens, UniProt P49589).
T1 sequence (P49589 whole entry): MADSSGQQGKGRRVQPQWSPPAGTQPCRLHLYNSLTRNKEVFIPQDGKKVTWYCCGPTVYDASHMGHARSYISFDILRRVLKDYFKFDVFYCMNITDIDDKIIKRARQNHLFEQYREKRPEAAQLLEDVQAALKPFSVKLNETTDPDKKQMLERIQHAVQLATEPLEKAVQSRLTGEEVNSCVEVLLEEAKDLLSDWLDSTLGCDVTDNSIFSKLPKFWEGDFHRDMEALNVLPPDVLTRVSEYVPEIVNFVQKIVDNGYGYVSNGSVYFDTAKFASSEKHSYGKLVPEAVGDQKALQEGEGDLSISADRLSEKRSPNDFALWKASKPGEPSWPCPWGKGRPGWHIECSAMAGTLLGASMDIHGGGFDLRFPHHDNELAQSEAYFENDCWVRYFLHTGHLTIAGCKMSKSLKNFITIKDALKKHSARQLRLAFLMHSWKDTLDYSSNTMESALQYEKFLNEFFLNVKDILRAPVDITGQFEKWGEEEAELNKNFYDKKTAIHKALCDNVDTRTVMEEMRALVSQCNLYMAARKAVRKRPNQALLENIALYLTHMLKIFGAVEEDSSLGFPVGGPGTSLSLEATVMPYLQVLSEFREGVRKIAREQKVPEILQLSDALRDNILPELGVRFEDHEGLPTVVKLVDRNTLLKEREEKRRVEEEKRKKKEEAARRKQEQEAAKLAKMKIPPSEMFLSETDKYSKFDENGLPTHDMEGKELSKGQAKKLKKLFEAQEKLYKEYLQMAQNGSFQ

Test [2] addresses T2, Phosphatidylinositol 5-phosphate 4-kinase type-2 gamma (Homo sapiens, UniProt Q8TBX8).
T2 sequence (Q8TBX8 whole entry): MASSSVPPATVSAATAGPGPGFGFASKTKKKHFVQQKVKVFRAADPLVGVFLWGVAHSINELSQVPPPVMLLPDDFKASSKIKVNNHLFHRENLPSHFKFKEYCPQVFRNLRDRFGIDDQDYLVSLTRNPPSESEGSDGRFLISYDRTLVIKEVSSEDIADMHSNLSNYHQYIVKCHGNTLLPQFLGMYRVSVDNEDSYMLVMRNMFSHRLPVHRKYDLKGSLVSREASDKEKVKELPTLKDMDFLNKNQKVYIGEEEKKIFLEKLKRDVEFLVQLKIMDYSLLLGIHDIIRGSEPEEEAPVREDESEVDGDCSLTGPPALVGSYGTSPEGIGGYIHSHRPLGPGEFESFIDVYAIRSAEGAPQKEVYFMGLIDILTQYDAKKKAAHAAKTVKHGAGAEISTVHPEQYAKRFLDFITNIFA

Test [3] has as its target Tyrosine-protein kinase Fer (Homo sapiens, UniProt P16591).
The target of test [4] is Serine/threonine-protein kinase pim-1 (Homo sapiens, UniProt P11309).
The target of test [5] is ATP-dependent RNA helicase DDX3X (Homo sapiens, UniProt O00571).
Test [6] addresses T3, ATP-dependent 6-phosphofructokinase, platelet type (Homo sapiens, UniProt Q01813).
T3 sequence (Q01813 whole entry): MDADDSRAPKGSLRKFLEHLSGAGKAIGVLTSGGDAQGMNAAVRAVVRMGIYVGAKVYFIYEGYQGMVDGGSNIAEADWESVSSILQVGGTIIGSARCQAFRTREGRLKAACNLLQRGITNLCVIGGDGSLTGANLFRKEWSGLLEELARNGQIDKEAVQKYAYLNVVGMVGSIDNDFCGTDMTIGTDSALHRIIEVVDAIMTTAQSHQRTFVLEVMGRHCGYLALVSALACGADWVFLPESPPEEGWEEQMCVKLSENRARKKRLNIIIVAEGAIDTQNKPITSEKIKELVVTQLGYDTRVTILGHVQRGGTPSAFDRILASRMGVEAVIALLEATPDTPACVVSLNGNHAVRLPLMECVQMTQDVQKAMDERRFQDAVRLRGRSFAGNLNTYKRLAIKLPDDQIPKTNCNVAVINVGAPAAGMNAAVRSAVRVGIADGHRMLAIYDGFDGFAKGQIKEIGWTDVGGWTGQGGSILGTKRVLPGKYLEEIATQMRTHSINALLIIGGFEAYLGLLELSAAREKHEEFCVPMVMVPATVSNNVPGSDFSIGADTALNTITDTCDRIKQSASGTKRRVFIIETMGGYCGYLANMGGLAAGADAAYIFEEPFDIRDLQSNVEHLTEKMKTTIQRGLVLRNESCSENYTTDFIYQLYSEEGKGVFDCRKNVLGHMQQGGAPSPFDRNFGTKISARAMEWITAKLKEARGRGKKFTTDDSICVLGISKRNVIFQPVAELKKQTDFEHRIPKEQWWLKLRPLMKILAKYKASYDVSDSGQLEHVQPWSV

Test [7] concerns the target Tyrosine-protein kinase FRK (Homo sapiens, UniProt P42685).
In test [8] the target is Maternal embryonic leucine zipper kinase (Homo sapiens, UniProt Q14680).
Test [9] addresses Tyrosine-protein kinase HCK (Homo sapiens, UniProt P08631).
Test [10] concerns the target U5 small nuclear ribonucleoprotein 200 kDa helicase (Homo sapiens, UniProt O75643).
Test [11] has as its target Receptor-interacting serine/threonine-protein kinase 3 (Homo sapiens, UniProt Q9Y572).

Calls of active or inactive are those of the source. Rule as the data show it, for most assays here: actives have a measured Kd and inactives only a lower limit.
Also: in the data inactive means no Kd found up to 30 µM.

Sequence of Receptor-interacting serine/threonine-protein kinase 3 (Q9Y572 whole entry): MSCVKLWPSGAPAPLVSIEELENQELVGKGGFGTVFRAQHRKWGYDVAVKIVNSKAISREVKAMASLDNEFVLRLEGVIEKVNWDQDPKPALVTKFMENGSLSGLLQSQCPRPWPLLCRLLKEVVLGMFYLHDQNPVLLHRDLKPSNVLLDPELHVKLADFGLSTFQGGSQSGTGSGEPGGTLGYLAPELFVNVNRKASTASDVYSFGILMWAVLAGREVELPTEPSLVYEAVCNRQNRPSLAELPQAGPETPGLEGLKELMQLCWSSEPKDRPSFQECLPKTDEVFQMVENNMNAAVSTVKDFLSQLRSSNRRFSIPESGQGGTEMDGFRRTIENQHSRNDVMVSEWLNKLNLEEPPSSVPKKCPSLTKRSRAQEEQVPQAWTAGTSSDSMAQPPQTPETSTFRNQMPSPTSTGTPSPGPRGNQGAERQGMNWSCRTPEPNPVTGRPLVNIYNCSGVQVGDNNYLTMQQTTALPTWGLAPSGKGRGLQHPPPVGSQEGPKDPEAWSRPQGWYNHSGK
Sequence of Tyrosine-protein kinase HCK (P08631 whole entry): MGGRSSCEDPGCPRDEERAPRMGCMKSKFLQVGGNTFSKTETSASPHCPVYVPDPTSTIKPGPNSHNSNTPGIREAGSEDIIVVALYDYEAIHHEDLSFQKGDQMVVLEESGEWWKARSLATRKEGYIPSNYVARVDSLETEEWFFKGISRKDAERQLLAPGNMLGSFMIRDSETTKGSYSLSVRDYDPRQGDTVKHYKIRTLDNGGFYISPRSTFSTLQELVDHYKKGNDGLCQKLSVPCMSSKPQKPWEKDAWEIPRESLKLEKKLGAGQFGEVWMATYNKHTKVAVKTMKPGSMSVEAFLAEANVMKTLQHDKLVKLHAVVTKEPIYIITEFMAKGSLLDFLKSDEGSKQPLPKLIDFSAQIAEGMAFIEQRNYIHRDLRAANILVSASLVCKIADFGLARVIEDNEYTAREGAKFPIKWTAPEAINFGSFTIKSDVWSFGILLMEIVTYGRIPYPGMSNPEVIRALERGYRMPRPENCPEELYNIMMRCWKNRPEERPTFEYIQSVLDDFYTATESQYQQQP
Sequence of Tyrosine-protein kinase FRK (P42685 whole entry): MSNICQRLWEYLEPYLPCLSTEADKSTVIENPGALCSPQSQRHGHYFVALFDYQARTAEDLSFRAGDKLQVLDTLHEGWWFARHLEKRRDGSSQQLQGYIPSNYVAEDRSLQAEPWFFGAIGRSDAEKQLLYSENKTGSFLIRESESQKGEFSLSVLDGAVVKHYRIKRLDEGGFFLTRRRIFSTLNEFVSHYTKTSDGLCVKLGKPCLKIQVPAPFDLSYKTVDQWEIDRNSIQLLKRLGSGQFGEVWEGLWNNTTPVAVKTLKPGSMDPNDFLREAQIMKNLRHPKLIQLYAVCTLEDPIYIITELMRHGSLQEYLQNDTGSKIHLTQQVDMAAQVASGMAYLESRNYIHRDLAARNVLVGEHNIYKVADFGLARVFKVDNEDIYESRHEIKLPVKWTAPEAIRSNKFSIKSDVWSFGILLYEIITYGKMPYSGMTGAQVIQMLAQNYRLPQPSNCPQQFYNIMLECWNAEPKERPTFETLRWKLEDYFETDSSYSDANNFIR
Sequence of ATP-dependent RNA helicase DDX3X (O00571 whole entry): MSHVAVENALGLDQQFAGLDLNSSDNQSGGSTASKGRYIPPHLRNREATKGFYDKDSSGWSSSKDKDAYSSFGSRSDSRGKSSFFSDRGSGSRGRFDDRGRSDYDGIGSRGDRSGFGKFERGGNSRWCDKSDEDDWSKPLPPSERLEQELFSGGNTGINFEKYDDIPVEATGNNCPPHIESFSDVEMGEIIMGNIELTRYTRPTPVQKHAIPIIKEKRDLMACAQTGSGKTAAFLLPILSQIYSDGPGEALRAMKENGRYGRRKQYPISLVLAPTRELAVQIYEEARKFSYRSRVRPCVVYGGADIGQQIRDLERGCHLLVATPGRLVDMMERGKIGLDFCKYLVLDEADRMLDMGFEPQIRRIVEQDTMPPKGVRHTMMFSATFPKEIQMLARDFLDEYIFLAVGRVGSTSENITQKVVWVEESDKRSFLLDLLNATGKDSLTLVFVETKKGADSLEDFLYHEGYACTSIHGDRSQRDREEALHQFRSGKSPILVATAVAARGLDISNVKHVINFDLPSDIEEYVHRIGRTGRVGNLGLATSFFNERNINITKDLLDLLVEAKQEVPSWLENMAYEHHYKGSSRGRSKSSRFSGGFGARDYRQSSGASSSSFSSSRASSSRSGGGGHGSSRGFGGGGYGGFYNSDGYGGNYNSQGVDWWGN
Sequence of Maternal embryonic leucine zipper kinase (Q14680 whole entry): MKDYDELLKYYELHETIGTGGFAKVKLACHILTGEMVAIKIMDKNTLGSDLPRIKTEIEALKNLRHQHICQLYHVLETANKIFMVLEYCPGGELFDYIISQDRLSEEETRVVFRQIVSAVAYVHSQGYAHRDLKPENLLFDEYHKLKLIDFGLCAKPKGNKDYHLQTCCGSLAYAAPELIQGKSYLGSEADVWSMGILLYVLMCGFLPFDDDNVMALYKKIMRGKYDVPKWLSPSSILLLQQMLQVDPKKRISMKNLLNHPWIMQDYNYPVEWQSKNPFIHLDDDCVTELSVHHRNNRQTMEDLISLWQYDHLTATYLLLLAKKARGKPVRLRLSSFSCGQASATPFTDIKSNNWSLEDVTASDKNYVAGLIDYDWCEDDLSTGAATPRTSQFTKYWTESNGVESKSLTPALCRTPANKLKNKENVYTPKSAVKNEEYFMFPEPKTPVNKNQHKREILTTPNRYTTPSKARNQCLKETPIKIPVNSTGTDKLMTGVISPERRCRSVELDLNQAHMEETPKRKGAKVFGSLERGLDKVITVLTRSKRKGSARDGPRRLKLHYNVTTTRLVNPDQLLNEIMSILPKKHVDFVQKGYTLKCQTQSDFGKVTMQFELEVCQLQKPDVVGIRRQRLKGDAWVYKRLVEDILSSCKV
Sequence of Serine/threonine-protein kinase pim-1 (P11309 whole entry): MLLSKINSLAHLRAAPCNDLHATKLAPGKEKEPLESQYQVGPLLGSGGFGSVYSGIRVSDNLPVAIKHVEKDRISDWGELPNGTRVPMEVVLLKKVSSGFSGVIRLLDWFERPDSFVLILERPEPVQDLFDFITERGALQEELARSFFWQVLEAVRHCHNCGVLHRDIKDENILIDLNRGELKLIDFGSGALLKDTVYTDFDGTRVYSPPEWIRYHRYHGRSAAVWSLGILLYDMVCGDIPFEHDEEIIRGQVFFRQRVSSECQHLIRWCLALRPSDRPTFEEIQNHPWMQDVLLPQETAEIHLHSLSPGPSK
Sequence of Tyrosine-protein kinase Fer (P16591 whole entry): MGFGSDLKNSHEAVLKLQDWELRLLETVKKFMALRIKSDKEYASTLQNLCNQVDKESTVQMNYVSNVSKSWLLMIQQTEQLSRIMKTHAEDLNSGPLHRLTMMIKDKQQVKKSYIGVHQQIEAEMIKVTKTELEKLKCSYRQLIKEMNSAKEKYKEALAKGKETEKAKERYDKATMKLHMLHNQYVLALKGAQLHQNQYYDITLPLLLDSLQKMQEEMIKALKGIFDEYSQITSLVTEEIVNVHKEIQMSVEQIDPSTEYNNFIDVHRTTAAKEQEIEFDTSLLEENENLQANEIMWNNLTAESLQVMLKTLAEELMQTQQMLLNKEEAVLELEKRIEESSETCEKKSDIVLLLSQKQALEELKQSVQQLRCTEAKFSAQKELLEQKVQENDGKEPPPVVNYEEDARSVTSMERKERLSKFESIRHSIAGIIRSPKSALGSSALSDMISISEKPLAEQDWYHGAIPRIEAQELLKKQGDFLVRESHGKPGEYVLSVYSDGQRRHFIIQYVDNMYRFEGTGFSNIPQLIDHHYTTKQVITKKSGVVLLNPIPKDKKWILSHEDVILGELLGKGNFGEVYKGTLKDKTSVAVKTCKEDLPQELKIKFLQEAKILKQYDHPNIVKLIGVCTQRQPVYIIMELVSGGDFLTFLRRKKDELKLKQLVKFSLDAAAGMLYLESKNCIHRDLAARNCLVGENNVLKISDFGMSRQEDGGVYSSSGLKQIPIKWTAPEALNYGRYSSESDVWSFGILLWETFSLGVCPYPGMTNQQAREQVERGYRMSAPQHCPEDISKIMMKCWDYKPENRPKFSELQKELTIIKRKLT

On to `Cc1cc(Nc2nc(N[C@@H](C)c3ncc(F)cn3)ncc2Cl)n[nH]1` [AZD-1480], for which the Kd in test [1] is > 30 µM (inactive); in test [2], > 30 µM (inactive); in test [3] it was 0.517 µM (active); in [4], > 30 µM (inactive); in [5] it was > 30 µM (inactive); in test [6], > 30 µM (inactive). For the same compound, the Kd in [7], in test [8], in test [9], in [10] and in test [11] was > 30 µM (inactive) in each case.

For the compound `COc1cccc2cc(-c3nc([C@H]4CC[C@H](C(=O)O)CC4)n4ncnc(N)c34)[nH]c12` [OSI-027], the Kd is > 30 µM (inactive) in test [1]; 4.97 µM in [2]; > 30 µM (inactive) in [3]; > 30 µM (inactive) in [4]; > 30 µM (inactive) in [5]; > 30 µM (inactive) in test [6]. The Kd in test [7], in test [8], in test [9], in test [10] and in test [11] was > 30 µM (inactive) each time.

Regarding `CN1CCN(c2nc(C3=C(c4c[nH]c5ccccc45)C(=O)NC3=O)c3ccccc3n2)CC1` [SOTRASTAURIN], the Kd in test [1] was > 30 µM (inactive); in [2], > 30 µM (inactive); in test [3], > 30 µM (inactive); in test [4] it was 8.84 µM; in test [5], > 30 µM (inactive); in test [6], > 30 µM (inactive). Also, the Kd in test [7], in test [8], in test [9], in [10] and in test [11] was > 30 µM (inactive) throughout.

For the compound `COc1ccc(-c2ccc3ncc4c(c3c2)n(-c2ccc(N3CCNCC3)c(C(F)(F)F)c2)c(=O)n4C)cn1` [BGT-226 FREE BASE], the Kd in test [1] is > 30 µM (inactive); in test [2], 4.79 µM (active); in test [3] it was > 30 µM (inactive); in [4], > 30 µM (inactive); in test [5], > 30 µM (inactive); in test [6] it was > 30 µM (inactive). Besides, the Kd was > 30 µM (inactive) in test [7]; 4.08 µM (active) in [8]; > 30 µM (inactive) in test [9]; > 30 µM (inactive) in [10]; > 30 µM (inactive) in test [11].

With `Cc1c(Cn2c(C)nc3c(C(=O)O)cc(N4CCOCC4)cc32)cccc1C(F)(F)F` [GSK-2636771], the Kd in test [1], in [2], in test [3], in test [4], in test [5] and in test [6] was > 30 µM (inactive) each time. The Kd in [7], in [8], in test [9], in test [10] and in test [11] was > 30 µM (inactive) throughout.

Consider `Cn1cc(-c2[nH]c3cc(NC(=O)[C@H](N)C4CCCCC4)cc4c3c2C=NNC4=O)cn1`, for which the Kd in [1], in [2], in test [3], in test [4], in test [5] and in test [6] was > 30 µM (inactive) in each case. Moreover, the Kd in test [7] is > 30 µM (inactive); in [8], 45.7 µM (active); in [9], 0.436 µM (active); in test [10], > 30 µM (inactive); in test [11] it was > 30 µM (inactive).

In the case of `C[C@@H]1COC(Nc2ccc3ncnc(Nc4ccc(OCc5nccs5)c(Cl)c4)c3c2)=N1` [VARLITINIB], the Kd in test [1], in [2], in test [3], in test [4], in test [5] and in [6] was > 30 µM (inactive) throughout. Besides, the Kd is > 30 µM (inactive) in [7]; > 30 µM (inactive) in [8]; > 30 µM (inactive) in test [9]; > 30 µM (inactive) in test [10]; 0.088 µM (active) in test [11].

As for `CCc1cc2c(cc1N1CCC(N3CCOCC3)CC1)C(C)(C)c1[nH]c3cc(C#N)ccc3c1C2=O` [ALECTINIB], the Kd in test [1] is > 30 µM (inactive); in [2], > 30 µM (inactive); in [3], 3.76 µM (active); in test [4], > 30 µM (inactive); in [5], > 30 µM (inactive); in [6], > 30 µM (inactive). The Kd in test [7], in test [8], in test [9], in [10] and in test [11] was > 30 µM (inactive) throughout.

Take `C#Cc1cccc(Nc2ncnc3cc4c(cc23)OCCOCCOCCO4)c1` [ICOTINIB]: the Kd in test [1] was 0.652 µM (active); in test [2] it was 4.66 µM (active); in test [3], > 30 µM (inactive); in test [4] it was > 30 µM (inactive); in [5], > 30 µM (inactive); in test [6] it was > 30 µM (inactive). In addition, the Kd in test [7], in [8], in test [9], in test [10] and in [11] was > 30 µM (inactive) each time.

As to `CC1(COc2ccc3c(c2)ncn3-c2ccc3cccc(N4CCC(N)CC4)c3n2)COC1` [CRENOLANIB], the Kd in test [1], in test [2], in test [3], in [4], in test [5] and in test [6] was > 30 µM (inactive) in each case. Besides, the Kd in test [7] was > 30 µM (inactive); in test [8] it was 4.23 µM (active); in test [9] it was > 30 µM (inactive); in [10], > 30 µM (inactive); in test [11], > 30 µM (inactive).

Consider `COc1cc2ncnc3c2cc1OCCCCCN(C)Cc1ccc(Br)cc1N3` [JNJ-26483327], for which the Kd in test [1], in test [2], in test [3], in test [4], in test [5] and in test [6] was > 30 µM (inactive) each time. For the same compound, the Kd in [7], in test [8], in test [9], in [10] and in test [11] was > 30 µM (inactive) each time.

The values above are taken from ChEMBL document CHEMBL3991601, “The target landscape of clinical kinase drugs” (Science, 2017).
